Test results published in article PMC10318822, “Phase 1 dose-escalation study to evaluate the safety, tolerability, pharmacokinetics, and anti-tumor activity of FCN-159 in adults with neurofibromatosis type 1-related unresectable plexiform neurofibromas” (BMC Medicine, 2023).
“And” between values parts separate entries of the source, which are not always exact repeats. Identical values can stand only once.

Tested on: adult patients with NF1-related PN
Assay: Phase I dose-escalation: DLT, MTD, RP2D and drug-related TEAEs (CTCAE v5.0)
Experimental: This is a multicenter, open-label, single-arm, non-randomized, phase I dose-escalation trial to evaluate the safety, tolerability, pharmacokinetic (PK), and anti-tumor activity of orally administered FCN-159 in adult patients with NF1 (NCT04954001). Phase I commenced with dose escalation in adult patients following a standard 3 + 3 design (Supplementary Table S1) to determine the maximum tolerated dose (MTD) of FCN-159 administered daily under fasting conditions (defined as no food or drink 1 h before and 2 h after each dose) in 28-day cycles. Study drug was dispensed at the study site and patient adherence was monitored by the records of drug dispensation and return. Patients were on treatment until PD, death, patient's voluntary withdrawal from study treatment, or study termination. The study was followed for 2 years after the last patient in. The starting dose was 4 mg, escalating in cohorts of at least three evaluable patients at 6 mg, 8 mg, and 12 mg until the MTD was determined. The starting dose in this study was determined based on available data from a phase 1a, first-in-human study of FCN-159 in patients with advanced NRAS ^mut+ melanoma at the time of study design. […] Dose expansion at a likely RP2D level enrolled approximately six patients. The highest dose level with a dose-limiting toxicity (DLT) incidence rate ≤ 33% (0/3 or 1/6 patients) was to be considered the MTD. If patients experienced grade ≥ 3 and/or unacceptable toxic events that were considered as at least possibly related to the study treatment, the study treatment was discontinued and supportive treatment was given in accordance with local treatment routines. If the toxicity returned to grade ≤ 2 within 28 days after the occurrence, and there was no progression on patients’ conditions or the investigator believed that patients could benefit from the study treatment, the original dose could be maintained or reduced after discussion with medical monitor. After completion of the dose escalation part of the study, PK, efficacy, safety, and tolerability data were analyzed to select the RP2D.
Primary endpoints of the study were the DLT incidence rate, MTD, and RP2D. Secondary endpoints included other safety assessments, imaging tumor response (complete response [CR], PR, stable disease [SD], or progressive disease [PD]), and PK parameters of FCN-159. Adverse events were graded per CTCAE v5.0.
All patients underwent a complete medical history, physical examination, Eastern Cooperative Oncology Group (ECOG) assessment, and laboratory analysis of test results. Drug-related TEAEs, serious adverse events (SAEs), TEAEs of grade ≥ 3 toxicity, and TEAEs leading to drug discontinuation were reviewed on an ongoing basis. Efficacy was assessed by radiologic scans and clinical assessment. Tumor assessments per Response Evaluation in Neurofibromatosis Schwannomatosis criteria were performed by investigators using MRI volumetric analysis every 4 cycles within the first 2 years (± 7 days) and every 6 cycles after 2 years (± 14 days) until PD, death, patient's voluntary withdrawal from study treatment, or study termination. MRI sequences of […], T1- and T2-weighted sequences were chosen and the software of Extended Brilliance Workspace, SIGNA Premier and uExceed were used for MRI volumetric analysis. The same software was used for all tumor assessments at baseline and subsequent assessed timepoints of the same patient. Pain was assessed by an 11-point numerical rating scale (NRS-11).
The sample size for the dose-escalation study was estimated to be 24 based on the 3 + 3 method. Safety was analyzed in patients who received at least one dose of FCN-159 and had at least one safety assessment. DLT was assessed in the DLT analysis set, defined as patients who were enrolled in the dose-escalation study and met the DLT evaluation criteria.

Cn1c(=O)c(F)c(Nc2ccc(I)cc2F)c2c(=O)n(C3CC3)nc(-c3cccc(NS(=O)(=O)C4CC4)c3)c21 [FCN-159]
3 (75.0) n (%): Drug-related TEAE: Alopecia (12 mg (N = 4)) | Drug-related TEAE: Mouth ulceration (12 mg (N = 4)) | Drug-related TEAE: QRS axis abnormal (12 mg (N = 4))
0 n (%): Drug-related TEAE: Oedema peripheral (8 mg (N = 8)) | Drug-related TEAE: Pain in extremity (8 mg (N = 8)) | Drug-related TEAE: QRS axis abnormal (8 mg (N = 8)) | Drug-related TEAE: Sinus arrhythmia (8 mg (N = 8)) | Drug-related TEAE: Sinus bradycardia (8 mg (N = 8)) | Drug-related TEAE: Sinusitis (8 mg (N = 8)) | Drug-related TEAE: Supraventricular extrasystoles (8 mg (N = 8)) | Drug-related TEAE: Total bile acids increased (8 mg (N = 8)) | Drug-related TEAE: Urinary tract infection (8 mg (N = 8)) | Drug-related TEAE: Urticaria (8 mg (N = 8)) | Drug-related TEAE: Visual acuity reduced (8 mg (N = 8)) | Drug-related TEAE: Abdominal pain (12 mg (N = 4)) | Drug-related TEAE: Acne (12 mg (N = 4)) | Drug-related TEAE: Acne pustular (12 mg (N = 4)) | Drug-related TEAE: Alanine aminotransferase increased (12 mg (N = 4)) | Drug-related TEAE: Albumin globulin ratio decreased (12 mg (N = 4)) | Drug-related TEAE: Anemia (12 mg (N = 4)) | Drug-related TEAE: Aortic dilatation (12 mg (N = 4)) | Drug-related TEAE: Aspartate aminotransferase increased (12 mg (N = 4)) | Drug-related TEAE: Asthenia (12 mg (N = 4)) | Drug-related TEAE: Beta globulin decreased (12 mg (N = 4)) | Drug-related TEAE: Beta globulin increased (12 mg (N = 4)) | Drug-related TEAE: Blood bilirubin increased (12 mg (N = 4)) | Drug-related TEAE: Blood creatine phosphokinase increased (12 mg (N = 4)) | Drug-related TEAE: Blood urea increased (12 mg (N = 4)) | Drug-related TEAE: Blood uric acid increased (12 mg (N = 4)) | Drug-related TEAE: Breath odor (12 mg (N = 4)) | Drug-related TEAE: Capillary disorder (12 mg (N = 4)) | Drug-related TEAE: Decreased appetite (12 mg (N = 4)) | Drug-related TEAE: Dermatitis acneiform (12 mg (N = 4)) | Drug-related TEAE: Diarrhea (12 mg (N = 4)) | Drug-related TEAE: Drug eruption (12 mg (N = 4)) | Drug-related TEAE: Dyslipidemia (12 mg (N = 4)) | Drug-related TEAE: Ejection fraction decreased (12 mg (N = 4)) | Drug-related TEAE: Electrocardiogram QT prolonged (12 mg (N = 4)) | Drug-related TEAE: Epistaxis (12 mg (N = 4)) | Drug-related TEAE: Functional gastrointestinal disorder (12 mg (N = 4)) | Drug-related TEAE: Gamma-glutamyltransferase increased (12 mg (N = 4)) | Drug-related TEAE: Gingival pain (12 mg (N = 4)) | Drug-related TEAE: Hypertension (12 mg (N = 4)) | Drug-related TEAE: Hypoalbuminemia (12 mg (N = 4)) | Drug-related TEAE: Hypocalcemia (12 mg (N = 4)) | Drug-related TEAE: Hypophosphatemia (12 mg (N = 4)) | Drug-related TEAE: Hypoproteinemia (12 mg (N = 4)) | Drug-related TEAE: Immunoglobulins increased (12 mg (N = 4)) | Drug-related TEAE: Impetigo (12 mg (N = 4)) | Drug-related TEAE: Left atrial enlargement (12 mg (N = 4)) | Drug-related TEAE: Lipoprotein abnormal (12 mg (N = 4)) | Drug-related TEAE: Malaise (12 mg (N = 4)) | Drug-related TEAE: Muscular weakness (12 mg (N = 4)) | Drug-related TEAE: Oedema peripheral (12 mg (N = 4)) | Drug-related TEAE: Pain in extremity (12 mg (N = 4)) | Drug-related TEAE: Paronychia (12 mg (N = 4)) | Drug-related TEAE: Prealbumin decreased (12 mg (N = 4)) | Drug-related TEAE: Protein urine present (12 mg (N = 4)) | Drug-related TEAE: Pruritus (12 mg (N = 4)) | Drug-related TEAE: Rash (12 mg (N = 4)) | Drug-related TEAE: Sinus arrhythmia (12 mg (N = 4)) | Drug-related TEAE: Sinus bradycardia (12 mg (N = 4)) | Drug-related TEAE: Skin exfoliation (12 mg (N = 4)) | Drug-related TEAE: Specific gravity urine increased (12 mg (N = 4)) | Drug-related TEAE: Stomatitis (12 mg (N = 4)) | Drug-related TEAE: Supraventricular extrasystoles (12 mg (N = 4)) | Drug-related TEAE: Total bile acids increased (12 mg (N = 4)) | Drug-related TEAE: Tricuspid valve incompetence (12 mg (N = 4)) | Drug-related TEAE: Urinary occult blood positive (12 mg (N = 4)) | Drug-related TEAE: Urinary sediment present (12 mg (N = 4)) | Drug-related TEAE: Urinary tract infection (12 mg (N = 4)) | Drug-related TEAE: Urine ketone body present (12 mg (N = 4)) | Drug-related TEAE: Urobilinogen urine increased (12 mg (N = 4))
2 (25.0) n (%): Drug-related TEAE: Protein urine present (8 mg (N = 8)) | Drug-related TEAE: Specific gravity urine increased (8 mg (N = 8)) | Drug-related TEAE: Tricuspid valve incompetence (8 mg (N = 8)) | Drug-related TEAE: Urinary occult blood positive (8 mg (N = 8)) | Drug-related TEAE: Urine ketone body present (8 mg (N = 8)) | Drug-related TEAE: pH urine decreased (8 mg (N = 8))
3 (37.5) n (%): Drug-related TEAE: Paronychia (8 mg (N = 8)) | Drug-related TEAE: Stomatitis (8 mg (N = 8))
16.7% and 12.5%: Patients with DLT (grade 3 folliculitis) (8 mg, 1 of 8 patients)
1 (12.5) n (%): Drug-related TEAE: Mouth ulceration (8 mg (N = 8)) | Drug-related TEAE: Muscular weakness (8 mg (N = 8)) | Drug-related TEAE: Prealbumin decreased (8 mg (N = 8)) | Drug-related TEAE: Pruritus (8 mg (N = 8)) | Drug-related TEAE: Rash (8 mg (N = 8)) | Drug-related TEAE: Skin exfoliation (8 mg (N = 8)) | Drug-related TEAE: Urinary sediment present (8 mg (N = 8)) | Drug-related TEAE: Urobilinogen urine increased (8 mg (N = 8)) | Drug-related TEAE: Vision blurred (8 mg (N = 8)) | Drug-related TEAE: pH urine increased (8 mg (N = 8))
8 (100) n (%): Subjects with any drug-related TEAE (8 mg (N = 8))
2 (50.0) n (%): Drug-related TEAE: Blood alkaline phosphatase increased (12 mg (N = 4)) | Drug-related TEAE: Constipation (12 mg (N = 4)) | Drug-related TEAE: Electrocardiogram abnormal (12 mg (N = 4)) | Drug-related TEAE: Menstrual disorder (12 mg (N = 4))
four: Subjects with grade 3 AEs (12 mg)
4 (100) n (%): Drug-related TEAE: Blood fibrinogen increased (12 mg (N = 4)) | Drug-related TEAE: Folliculitis (12 mg (N = 4))
1 (25.0) n (%): Drug-related TEAE: Amylase increased (12 mg (N = 4)) | Drug-related TEAE: Blood lactate dehydrogenase increased (12 mg (N = 4)) | Drug-related TEAE: Blood pressure increased (12 mg (N = 4)) | Drug-related TEAE: Hyperlipidemia (12 mg (N = 4)) | Drug-related TEAE: Mitral valve incompetence (12 mg (N = 4)) | Drug-related TEAE: Sinusitis (12 mg (N = 4))
